Measured values from US12415811B2, “1,2,3',5'-tetrahydro-2'h-spiro[indole-3,1'-pyrrolo[3,4-C]pyrrole]-2,3'-dione compounds as therapeutic agents activating TP53” (ADAMED PHARMA, S.A., priority 2018, dated 2025).
Like-named read-outs stand apart in the source and are kept apart here.

What was measured:
p53-Mdm2 interaction = p53-Mdm2 interaction (Homo sapiens (Human), UniProt Q00987); experiment: Fluorescence polarization (FP) binding assay, inhibition of p53-Mdm2 interaction; conditions: 75 nM Mdm2 (amino acids 1-111), 10 nM FAM-labelled p53 peptide; IC50 transformed to Ki using Kenakin equation
Protocol: The inhibition of p53-Mdm2 interaction was measured using a fluorescence polarization (FP) binding assay. FP measures the rotational movement of molecules in a homogenous suspension. For this assay, N-terminal domain of Mdm2 protein (amino acids 1-111) is combined with a fluorescein-labeled (FAM) peptide derived from p53 trans-activation domain (Sequence: 5-FAM-TSFAEYWNLLSP). Upon excitation of the fluorescent ligand with linearly polarized light the peptide emits perpendicularly polarized light. If the peptide is bound by Mdm2, rotation will slow down and the perpendicular component will proportionally decrease. In opposition disruption of the peptide-Mdm2 complex due to binding of an inhibitor to the p53 binding site of Mdm2 results in releasing of peptide and decreasing of emitted light polarization.
Fluorescence polarization experiments were read on Biotek Cytation 5 reader with the 470 nm excitation and 520 nm emission filters for fluorescein. The fluorescence polarization was measured in black 96-well plates (Corning, CLS3991) in room temperature. Purity of Mdm2 was controlled at >95%. Reaction buffer was optimized by adding 5 mM DTT and 0.1% zwitterionic detergent CHAPS to reduce effect of nonspecific interactions.
The test was performed by combining successive dilution of compounds diluted in dimethyl sulfoxide (DMSO, 5% final concentration) with 75 nM Mdm2 in reaction buffer (PBS, 0.1% CHAPS, 5 mM DTT (dithiothreitol)). After 15 minutes of incubation in room temperature 10 nM FAM-labelled peptide was added. Final reading was performed after 90 minutes of incubation. Dose-dependent binding curves and IC50 values were calculated using GraphPad Prism5 and next transformed to Ki values using Kenakin equation (Table 2).

[1] = tested on: SJSA-1 osteosarcoma cell line; experiment: Cell viability MTT assay; type: cell-based; conditions: Homo sapiens, 72 h incubation, average of 2-5 experiments
Protocol: The effect of the invented p53-Mdm2 inhibitors on cell viability has been assessed using MTT assay. It is a colorimetric assay that measures conversion of tetrazolium ring of the soluble yellow dye (MTT) into insoluble purple formazan. This process is catalyzed solely in mitochondrial dehydrogenases of living cells.
Cells were seeded on 96-well plates and then treated with successive dilutions of tested compounds. After 72 h incubation, MTT was added to the final concentration 0.5 mg/ml. The cells were further incubated for the next 4 h. Then the solution was drained and the remaining formazan crystals were dissolved in 100 μl DMSO. […] All the MTT experiments were independently repeated 2-5 times. Dose-dependent binding curves and IC50 values were calculated using GraphPad Prism 5. The presented IC50 values represent the average value from all the performed experiments (Table 3).

[2] = In vitro intrinsic clearance in murine microsomes; type: in vitro ADME; conditions: mouse, pH 7.4; murine microsomes 0.5 mg/ml, 1 μM compound, 37° C., up to 1 hour; read-out: murine MS Clint
Protocol: (§1) Metabolic stability of the compounds of the invention has been assessed by measurement of the in vitro intrinsic clearance in murine and human microsomes.
(§2) 10 mM stock solutions of markers and test compounds were prepared in DMSO. These were diluted 100-fold in 91:9 MeCN:DMSO to obtain a 100 μM assay stock. 10 mM NADPH was made up in 0.1M phosphate buffer (pH7.4). Microsomes were thawed in a waterbath at 37° C., and diluted to give a final assay concentration of 0.5 mg/ml.
(§3) 100 μM assay stocks were added to give a final concentration of 1 μM to incubation tubes containing buffer and NADPH (final assay concentration is 1 mM). Incubation tubes and microsomes were pre-warmed at 37° C. for 3 minutes. The microsomes were then added to the incubation tubes which were kept at 37° C. and shaken using the orbital shaker for the duration of the assay. Samples were taken at 6 pre-determined time points up to 1 hour and transferred to the prepared quench tubes containing an appropriate solvent with internal standard.
(§4) Quenched samples are mixed thoroughly and protein precipitated at −20° C. for a minimum of 12 hours. Samples were then centrifuged at 4° C. Supernatants were transferred to a fresh 96 well plate, compatible with the auto-sampler. The plate was sealed with a pre-slit silicone mat and analyzed by LC-MS/MS.

[3] = In vitro intrinsic clearance in human microsomes; type: in vitro ADME; conditions: pH 7.4; human microsomes 0.5 mg/ml, 1 μM compound, 37° C., up to 1 hour; read-out: human MS Clint
Protocol: as §1, §2, §3, §4

SJSA-1 xenograft = experiment: In vivo efficacy in the SJSA-1 xenograft model in mice; conditions: for inhibition in vivo at 12.5 mg/kg: Mus musculus, po, 12.5 mg/kg p.o., q1d, SJSA-1 xenograft in Crl:CD-1-Foxn1nu mice, mean; for effect of treatment on tumors (in words): 14 doses of 12.5 mg/kg p.o., SJSA-1 xenograft; for regrowth of lesions during follow-up: after 14 doses of 12.5 mg/kg p.o., follow-up to day 101
Protocol: The experiment was conducted on female mice from the Crl:CD-1-Foxn1nu strain. Mice were inoculated subcutaneously in the right flank with cancer cell line SJSA-1 in the amount of 3×10^6 cells suspended in 100 μl HBSS: Matrigel matrix in a 3:1 ratio per mouse. On the 17th day after inoculation mice were divided into groups, so that in each group the mean tumor volume was similar and averaged around 200 mm^3. Experiment groups were selected, each consisting of 8 mice: Control NaCl 0.9% and compounds. Compounds 1-11 were dissolved in 56.60% PEG 400, 9.43% Cremophor RH40, 9.43% ETOH, 18.87% Labrafil M1944CS, 5.67% DMSO. For Compound 107 from WO2015/189799, group of 7 mice was used, and it was dissolved in 15% PEG400, 10% Cremophor EL, 75% H2O.
[…] During the course of experiment mice were weighed before each administration, —twice/thrice a week. Animal welfare was monitored daily. No significant difference in body weight or welfare was observed between experiment groups during and at the end of study.
Change in tumor volume was monitored twice/thrice a week starting from the first day of administration. Tumor volume was calculated based on its length and width measured with an electronic calipers: V[mm^3]=d^2×D/2
The tumor volume in the groups was measured up to 101 days after inoculation (72 days after last administration). Results of the experiment were expressed as mean values of tumor growth inhibition (TGI) ±SEM (Table 4). Tumor growth inhibition was calculated using the following formula TGI [%]=[100−[…]]
where C— mean tumor size in control group, T—mean tumor size in treated group. All calculations and graphs were performed using GraphPad Prism 5 software.

[4] = after 7 doses, read-out: TGI P.O. 12.5 mg/kg (7 doses) [%]
[5] = after 12 doses, read-out: TGI P.O. 12.5 mg/kg (12 doses) [%]

p53-Mdm2 interaction, sequence (Q00987 1-111): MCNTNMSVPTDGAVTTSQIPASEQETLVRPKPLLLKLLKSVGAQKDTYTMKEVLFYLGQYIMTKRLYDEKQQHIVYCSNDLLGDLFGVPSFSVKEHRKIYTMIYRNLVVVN

Structure (SMILES)	Ki (p53-Mdm2 interaction) [nM]	IC50 [1] [µM]	microsomal CLint at 1 μM [2] [µL/min/mg]	microsomal CLint at 1 μM [3] [µL/min/mg]	inhibition in vivo at 12.5 mg/kg (SJSA-1 xenograft; [4]) [%]	inhibition in vivo at 12.5 mg/kg (SJSA-1 xenograft; [5]) [%]	effect of treatment on tumors (in words) (SJSA-1 xenograft)	regrowth of lesions during follow-up (SJSA-1 xenograft)
COc1nc(OC)c(-n2cc3c(c2C(C)C)[C@@]2(C(=O)Nc4cc(Cl)ccc42)N(c2cc(Cl)ccc2F)C3=O)c(OC)n1 [Compound 5, (3S)-6-chloro-2′-(5-chloro-2-fluorophenyl)-6′-(propan-2-yl)-5′-(trimethoxypyrimidin-5-yl)-1,2,3′,5′-tetrahydro-2′H-spiro[indole-3,1′-pyrrolo[3,4-c]pyrrole]-2,3′-dione]	2.2	0.18	< 3	< 3	85.8	96		
COc1ncc(-n2cc3c(c2C(C)C)[C@@]2(C(=O)Nc4cc(Cl)ccc42)N(c2cc(Cl)c(F)cc2F)C3=O)c(OC)n1 [Compound 10, (3S)-6-chloro-2′-(5-chloro-2,4-difluorophenyl)-5′-(2,4-dimethoxypyrimidin-5-yl)-6′-(propan-2-yl)-1,2,3′,5′-tetrahydro-2′H-spiro[indole-3,1′-pyrrolo[3,4-c]pyrrole]-2,3′-dione]	2	0.4	< 3	< 3.2	93.5	98.8		
COc1nc(OC)c(-n2cc3c(c2C(C)C)[C@@]2(C(=O)Nc4cc(Cl)ccc42)N(c2cc(Cl)ccc2C)C3=O)c(OC)n1 [Compound 3, (3S)-6-chloro-2′-(5-chloro-2-methylphenyl)-6′-(propan-2-yl)-5′-(trimethoxypyrimidin-5-yl)-1,2,3′,5′-tetrahydro-2′H-spiro[indole-3,1′-pyrrolo[3,4-c]pyrrole]-2,3′-dione]	2.4	0.07	< 3	< 3	94.2	99.6		
COc1ncc(-n2cc3c(c2C(C)C)[C@@]2(C(=O)Nc4cc(Cl)ccc42)N(c2ccc(F)c(F)c2)C3=O)c(OC)n1 [Compound 7, (3S)-6-chloro-2′-(3,4-difluorophenyl)-5′-(2,4-dimethoxypyrimidin-5-yl)-6′-(propan-2-yl)-1,2,3′,5′-tetrahydro-2′H-spiro[indole-3,1′-pyrrolo[3,4-c]pyrrole]-2,3′-dione]	1.9	0.22	6.6	< 3	95	100	complete eradication of tumors	none of the lesions exhibited regrowth
COc1ncc(-n2cc3c(c2C(C)C)[C@@]2(C(=O)Nc4cc(Cl)ccc42)N(c2cccc(Cl)c2)C3=O)c(OC)n1 [Compound 1, (3S)-6-chloro-2′-(3-chlorophenyl)-5′-(2,4-dimethoxypyrimidin-5-yl)-6′-(propan-2-yl)-1,2,3′,5′-tetrahydro-2′H-spiro[indole-3,1′-pyrrolo[3,4-c]pyrrole]-2,3′-dione]	1.8	0.18	8.8	< 3	95	99.5		

Continued, in another order:

Ki (p53-Mdm2 interaction) [nM]	IC50 [1] [µM]	microsomal CLint at 1 μM [2] [µL/min/mg]	microsomal CLint at 1 μM [3] [µL/min/mg]	Structure (SMILES)	inhibition in vivo at 12.5 mg/kg (SJSA-1 xenograft; [4]) [%]	inhibition in vivo at 12.5 mg/kg (SJSA-1 xenograft; [5]) [%]	effect of treatment on tumors (in words) (SJSA-1 xenograft)	regrowth of lesions during follow-up (SJSA-1 xenograft)
2.5	0.05			CCC(C)c1c2c(cn1-c1cnc(OC)nc1OC)C(=O)N(c1cc(Cl)ccc1F)[C@]21C(=O)Nc2cc(Cl)ccc21 (some centres unmarked) [Compound 11, (3)-6′-(butan-2-yl)-6-chloro-2′-(5-chloro-2-fluorophenyl)-5′-(2,4-dimethoxypyrimidin-5-yl)-1,2,3′,5′-tetrahydro-2′H-spiro[indole-3,1′-pyrrolo[3,4-c]pyrrole]-2,3′-dione]	93.7	99.7	complete eradication of tumors	none of the lesions exhibited regrowth
1.9	0.15	12.8	< 3	COc1cc(OC)c(-n2cc3c(c2C(C)C)[C@@]2(C(=O)Nc4cc(Cl)ccc42)N(c2ccc(F)c(F)c2)C3=O)cn1 [Compound 8, (3S)-6-chloro-2′-(3,4-difluorophenyl)-5′-(4,6-dimethoxypyridin-3-yl)-6′-(propan-2-yl)-1,2,3′,5′-tetrahydro-2′H-spiro[indole-3,1′-pyrrolo[3,4-c]pyrrole]-2,3′-dione]	96.4	99.7	complete eradication of tumors	none of the lesions exhibited regrowth
1.7	0.03	33.6	19.8	COc1cc(N(C)C)ncc1-n1cc2c(c1C(C)C)[C@@]1(C(=O)Nc3cc(Cl)ccc31)N(c1cc(Cl)ccc1F)C2=O [Compound 6, (3S)-6-chloro-2′-(5-chloro-2-fluorophenyl)-5′-[6-(dimethylamino)-4-methoxypyridin-3-yl]-6′-(propan-2-yl)-1,2,3′,5′-tetrahydro-2′H-spiro[indole-3,1′-pyrrolo[3,4-c]pyrrole]-2,3′-dione]	92	99.1		
2	0.12			COc1cc(OC)c(-n2cc3c(c2C(C)C)[C@@]2(C(=O)Nc4cc(Cl)ccc42)N(c2cc(Cl)ccc2F)C3=O)cn1 [Compound 9, (3S)-6-chloro-2′-(5-chloro-2-fluorophenyl)-5′-(4,6-dimethoxypyridin-3-yl)-6′-(propan-2-yl)-1,2,3′,5′-tetrahydro-2′H-spiro[indole-3,1′-pyrrolo[3,4-c]pyrrole]-2,3′-dione]	89.5	97.7		
